The test system of experiment [1] is hct116 cells (colon cancer). Briefly: Cell proliferation inhibition, hct116 (MTT). The following applies: Homo sapiens, HCT-116. In kind it is cell-based. Summed up:
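Cells seeded at 2000-3000/well; adherent lines dosed after attachment, then 96 h incubation with compound. Viability read by MTT for solid-tumour lines (HCT116, A2780s) and CCK-8 for MV4-11; IC50 from four-parameter logistic fit of inhibition ratio versus concentration.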

For experiment [2], the system named is RPMI-8226 cells (multiple myeloma). Briefly: Proliferation inhibition, RPMI-8226 (cck-8). The following applies: Homo sapiens, 96 h incubation. In kind it is cell-based. The text has this:
(§1) Calculating the value of IC50 as per the formula: Y=background data+(top data−background data)/(1+10^((Log IC50−X)*rate of curve)). Where, Y refers to the inhibition ratio (%) and X refers to the compound concentration.

Experiment [3] deals with U266 cells (multiple myeloma). Description: Proliferation inhibition, U266 (cck-8). Type of experiment: cell-based. To be noted: Homo sapiens, U-266; 96 h incubation.
Description: as §1

The next experiment addresses T1, HDAC8 (Homo sapiens, UniProt Q9BY41).
T1 construct: purchased BPS Bioscience 50008
T1 sequence (Q9BY41 1-377): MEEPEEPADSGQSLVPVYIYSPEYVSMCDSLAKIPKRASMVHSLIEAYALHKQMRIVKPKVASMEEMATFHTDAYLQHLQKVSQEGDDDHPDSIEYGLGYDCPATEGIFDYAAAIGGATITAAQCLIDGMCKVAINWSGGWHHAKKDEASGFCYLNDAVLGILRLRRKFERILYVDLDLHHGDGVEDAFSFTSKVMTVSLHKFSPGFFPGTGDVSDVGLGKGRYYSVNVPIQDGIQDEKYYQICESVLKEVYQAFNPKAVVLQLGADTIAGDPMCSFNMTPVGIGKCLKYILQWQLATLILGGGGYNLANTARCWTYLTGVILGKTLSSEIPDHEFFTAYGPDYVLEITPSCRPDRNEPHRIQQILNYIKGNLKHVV
Briefly: HDAC8 enzyme inhibition (Lys-Ac-AMC). Type of experiment: biochemical. To be noted: Table 4, graded. As to the method:
(§2) Determining the inhibition capability of HDAC through the substrate method of fluorophore coupled acetylized peptide fragment (Lys-Ac-AMC). HDAC2-11 proteins of subtypes are purchased from BPS Bioscience Company with the Art. […] The reaction buffer system is a modified Tris buffer (pH7.0). The small molecule compounds are prepared and dissolved with 100% DMSO. […] Adding the compound into the reaction wells of the 384 well plate at the designed concentration, then adding 15 μL HDAC enzyme solution into the reaction wells (adding 15 μL blank buffer into the control well 0) for incubation under ambient temperature for 15 min; then adding 10 μL substrate solution to start reaction.
(§3) Analyzing the result data with the software GraphPad Prism and calculating the value of IC50 as per the formula: Y=background data+(top data−background data)/(1+10^((Log IC50−X)*rate of curve)). Where, Y refers to the inhibition ratio (%) and X refers to the compound concentration.

A further experiment concerns the target T2, HDAC6 (Homo sapiens, UniProt Q9UBN7).
T2 construct: purchased BPS Bioscience 50006
T2 sequence (Q9UBN7 1-1215): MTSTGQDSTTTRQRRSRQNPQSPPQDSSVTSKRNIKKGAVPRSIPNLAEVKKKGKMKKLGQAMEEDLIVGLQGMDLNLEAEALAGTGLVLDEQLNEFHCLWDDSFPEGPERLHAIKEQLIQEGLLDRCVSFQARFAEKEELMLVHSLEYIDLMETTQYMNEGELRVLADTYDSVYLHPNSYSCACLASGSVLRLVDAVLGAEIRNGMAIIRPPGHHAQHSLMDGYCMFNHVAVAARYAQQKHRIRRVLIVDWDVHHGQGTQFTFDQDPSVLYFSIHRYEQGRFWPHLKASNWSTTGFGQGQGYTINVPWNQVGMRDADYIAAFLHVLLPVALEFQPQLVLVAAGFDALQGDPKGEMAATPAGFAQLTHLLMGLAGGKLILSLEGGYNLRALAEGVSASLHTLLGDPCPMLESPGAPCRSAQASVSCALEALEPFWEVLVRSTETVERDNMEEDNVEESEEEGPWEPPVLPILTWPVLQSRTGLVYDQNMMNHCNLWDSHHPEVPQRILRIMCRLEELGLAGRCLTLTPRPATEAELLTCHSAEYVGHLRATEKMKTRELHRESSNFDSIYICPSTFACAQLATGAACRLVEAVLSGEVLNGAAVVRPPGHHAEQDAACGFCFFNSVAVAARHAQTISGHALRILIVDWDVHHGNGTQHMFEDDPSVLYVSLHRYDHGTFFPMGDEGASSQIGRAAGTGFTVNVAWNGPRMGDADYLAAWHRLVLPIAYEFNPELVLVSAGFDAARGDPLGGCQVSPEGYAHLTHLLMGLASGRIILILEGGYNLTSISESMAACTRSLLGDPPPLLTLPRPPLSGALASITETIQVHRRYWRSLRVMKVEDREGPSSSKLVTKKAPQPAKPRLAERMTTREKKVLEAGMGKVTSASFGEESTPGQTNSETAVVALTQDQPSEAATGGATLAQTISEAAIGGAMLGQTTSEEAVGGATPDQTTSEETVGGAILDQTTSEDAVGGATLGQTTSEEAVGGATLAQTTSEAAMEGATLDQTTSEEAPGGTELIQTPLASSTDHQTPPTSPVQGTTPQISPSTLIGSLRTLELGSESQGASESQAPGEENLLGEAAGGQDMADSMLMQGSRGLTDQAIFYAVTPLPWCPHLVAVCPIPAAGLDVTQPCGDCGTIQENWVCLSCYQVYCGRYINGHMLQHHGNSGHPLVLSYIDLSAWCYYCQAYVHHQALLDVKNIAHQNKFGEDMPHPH
Briefly: HDAC6 enzyme inhibition (Lys-Ac-AMC). In kind it is biochemical. To be noted: Table 4, graded. On the procedure: as §2, §3

The mark [4] stands for this setting: 96 h incubation, read-out: Proliferation IC50, Colon cancer hct116.

Where two headings read alike, the source gives them in different places.

With `COc1ccc(-c2nc(N3CCOCC3)c3nc(CN(C)c4ncc(C(=O)NO)cn4)n(C)c3n2)cn1` [CLJ-1, 2-(((2-(6-methoxypyridine-3-yl)-9-methyl-6-morpholine-9H-purine-8-yl))methyl(methyl)amino)-N-hydroxyl pyrimidine-5-formamide], the IC50 lay within 10 to 100 nM in experiment [1] (setting [4]); 1 to 10 nM in experiment [2]; 0.1 to 1 nM in experiment [3]; 100 to 1000 nM on HDAC8; 1 to 100 nM on HDAC6.
Consider `CN(Cc1nc2c(N3CCOCC3)nc(-c3cnc(N)nc3)nc2n1C)c1ncc(C(=O)NO)cn1` [CLJ-11, 2-(((2-(2-aminopyrimidine-5-yl)-9-methyl-6-morpholine-9H-purine-8-yl))methyl(methyl)amino)-N-hydroxyl pyrimidine-5-formamide], for which the IC50 in experiment [1] (setting [4]) was 10 to 100 nM; in experiment [2], 10 to 100 nM; in experiment [3], 10 to 100 nM; on HDAC8, 1 to 100 nM; on HDAC6 it was 1 to 100 nM.
For `COc1ccc(-c2nc(N3CCOCC3)c3nc(CN(C)c4ncc(C(=O)NO)cn4)n(C)c3n2)cc1` [CLJ-29, 2-(((2-(4-methoxyphenyl)-9-methyl-6-morpholine-9H-purine-8-yl))methyl(methyl)amino)-N-hydroxyl pyrimidine-5-formamide], the IC50 in experiment [1] (setting [4]) fell in the range of 0.1 to 10 nM; in experiment [1] (read-out: IC50 to proliferation of hct116 cells) it was 0.1 to 10 nM; in experiment [2], 0.1 to 1 nM; in experiment [3], 0.1 to 1 nM; against HDAC8, 1 to 100 nM; at HDAC6, 1 to 100 nM.
In the case of `CN(Cc1nc2c(N3CCOCC3)nc(-c3ccc(N)cc3)nc2n1C)c1ncc(C(=O)NO)cn1` [CLJ-44], the IC50 in experiment [1] (setting [4]) was in the range of 10 to 100 nM; in experiment [2] it was 0.1 to 1 nM; in experiment [3], 1 to 10 nM; against HDAC8, 1 to 100 nM; against HDAC6, 1 to 100 nM.
On to `Cc1[nH]c2ccccc2c1CCNCc1ccc(/C=C/C(=O)NO)cc1` [LBH589, panobinostat, reference compound], for which the results for the IC50 in experiment [1] (setting [4]), in experiment [2] and in experiment [3] were 0.1 to 10 nM, 1 to 10 nM and 1 to 10 nM, respectively.

The values are drawn from patent US10227347B2, “Purinyl-N-hydroxyl pyrimidine formamide derivative, preparation methods and uses thereof” (Guizhou Bailing Group Pharmaceutical CO., LTD., priority 2015, dated 2019).
